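Briefly, cells in 96-well plates were exposed to five compound concentrations for 48 h, and endpoints were estimated by linear interpolation. GI50: concentration for 50% inhibition of growth. TGI marks complete inhibition of growth.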
Experiments:
Assay in all cases: NCI anticancer screen, dose series, 48 h
[1] = tested on: SF-539 CNS
[2] = tested on: SNB-19 CNS
[3] = tested on: NCI-H460 lung
[4] = tested on: CAKI-1 renal
[5] = tested on: LOX IMVI melanoma
[6] = tested on: PC-3 prostate
[7] = tested on: M14 melanoma
[8] = tested on: K-562 leukemia
[9] = tested on: ACHN renal
[10] = tested on: MOLT-4 leukemia
[11] = tested on: KM12 colon
[12] = tested on: MDA-MB-435
[13] = tested on: HCT-116 colon
[14] = tested on: T-47D breast
[15] = tested on: RXF 393 renal
[16] = tested on: NCI-H522 lung
[17] = tested on: RPMI-8226 leukemia
[18] = tested on: A498 renal
[19] = tested on: TK-10 renal
[20] = tested on: SF-268 CNS
[21] = tested on: BT-549 breast
[22] = tested on: HOP-92 NSCLC
[23] = tested on: HCT-15 colon
[24] = tested on: CCRF-CEM leukemia
[25] = tested on: HOP-62 NSCLC
[26] = tested on: SW-620 colon
[27] = tested on: HL-60(TB) leukemia
[28] = tested on: HS 578T breast
[29] = tested on: SK-OV-3 ovarian
[30] = tested on: SN12C renal
[31] = tested on: SNB-75 CNS
[32] = tested on: UACC-257 melanoma
[33] = tested on: MDA-MB-231 breast
[34] = tested on: SK-MEL-5 melanoma
[35] = tested on: SK-MEL-28 melanoma
[36] = tested on: 786-0 renal
[37] = tested on: DU-145 prostate
[38] = tested on: A549 NSCLC
[39] = tested on: SK-MEL-2 melanoma
[40] = tested on: EKVX NSCLC
[41] = tested on: IGROV1 ovarian
[42] = tested on: OVCAR-8 ovarian
[43] = tested on: OVCAR-3 ovarian
[44] = tested on: SF-295 CNS
[45] = tested on: UO-31 renal
[46] = tested on: MCF7 breast
[47] = tested on: U251 CNS
[48] = tested on: UACC-62 melanoma
[49] = tested on: COLO 205 colon
[50] = tested on: SR leukemia

`CC1=C(C(=O)Nc2ccc(F)c(Cl)c2)C(c2cccc(Cl)c2)NC(=S)N1` (stereo not given) showed a GI50 [1] greater than 50 µM, a TGI [1] greater than 50 µM and a GI50 [2] of 26.7 µM. It also gave a TGI [2] greater than 50 µM, a GI50 [3] of 23.9 µM and a TGI [3] greater than 50 µM. The GI50 [4] was greater than 50 µM, the TGI [4] was greater than 50 µM and the GI50 [5] was 1440 nM. For the same compound, the TGI [5] was 6.76 µM, the GI50 [6] was 16.1 µM and the TGI [6] was greater than 50 µM. It also gave a GI50 [7] of 9.02 µM, a TGI [7] of 23.4 µM and a GI50 [8] of 13.6 µM. It also gave a TGI [8] of 28.8 µM, a GI50 [9] of 3.61 µM and a TGI [9] of 14.4 µM. The GI50 [10] was 45.1 µM, the TGI [10] was greater than 50 µM and the GI50 [11] was 1340 nM. For the same compound, the TGI [11] was 12.6 µM, the GI50 [12] was 11.1 µM and the TGI [12] was 32.4 µM. The GI50 [13] was 2300 nM, the TGI [13] was 11.3 µM and the GI50 [14] was 42.5 µM. The TGI [14] was greater than 50 µM, the GI50 [15] was 1100 nM and the TGI [15] was 3.24 µM. For the same compound, the GI50 [16] was 2130 nM, the TGI [16] was 17.3 µM and the GI50 [17] was 15.3 µM. The TGI [17] was greater than 50 µM, the GI50 [18] was 7.3 µM and the TGI [18] was 15.7 µM. It also gave a GI50 [19] of 9.01 µM, a TGI [19] of 45.5 µM and a GI50 [20] of 10.1 µM. It also gave a TGI [20] of 25.9 µM, a GI50 [21] of 10.4 µM and a TGI [21] of 28.1 µM. It also gave a GI50 [22] of 32.1 µM, a TGI [22] greater than 50 µM and a GI50 [23] of 10.2 µM. The TGI [23] was greater than 50 µM, the GI50 [24] was 36.7 µM and the TGI [24] was greater than 50 µM. For the same compound, the GI50 [25] was 7.83 µM, the TGI [25] was 18.9 µM and the GI50 [26] was greater than 50 µM. For the same compound, the TGI [26] was greater than 50 µM, the GI50 [27] was 16.3 µM and the TGI [27] was greater than 50 µM. The GI50 [28] was 26.4 µM, the TGI [28] was greater than 50 µM and the GI50 [29] was 5.26 µM. For the same compound, the TGI [29] was 26.6 µM, the GI50 [30] was 7.46 nM and the TGI [30] was 2510 nM. It also gave a GI50 [31] of 6.36 µM, a TGI [31] of 21 µM and a GI50 [32] of 10.1 µM. It also gave a TGI [32] of 23.5 µM, a GI50 [33] of 7.36 µM and a TGI [33] of 17.4 µM. It also gave a GI50 [34] of 10 µM, a TGI [34] of 20.2 µM and a GI50 [35] of 10.2 µM. The TGI [35] was 28 µM, the GI50 [36] was 1850 nM and the TGI [36] was 8.4 µM. The GI50 [37] was 17.3 µM, the TGI [37] was greater than 50 µM and the GI50 [38] was 12.7 µM. It also gave a TGI [38] of 41.9 µM, a GI50 [39] of 8.4 µM and a TGI [39] of 20.5 µM. It also gave a GI50 [40] of 14.6 µM, a TGI [40] of 38.6 µM and a GI50 [41] of 10.3 µM. For the same compound, the TGI [41] was 39.2 µM, the GI50 [42] was 17.1 µM and the TGI [42] was greater than 50 µM. The GI50 [43] was 13.9 µM, the TGI [43] was 33.6 µM and the GI50 [44] was 6.28 µM. It also gave a TGI [44] greater than 50 µM, a GI50 [45] of 3.67 µM and a TGI [45] of 14.6 µM. For the same compound, the GI50 [46] was 47.6 µM, the TGI [46] was greater than 50 µM and the GI50 [47] was 6.84 µM. For the same compound, the TGI [47] was 18.8 µM, the GI50 [48] was 3.93 µM and the TGI [48] was 12.5 µM. It also gave a GI50 [49] of 4.22 µM, a TGI [49] greater than 50 µM and a GI50 [50] of 15.4 µM. It also gave a TGI [50] of 47.8 µM.
